Drawing on patent US10334859B2, “Method and pesticidal mixtures for controlling Pentatomidae pests” (BASF SE, priority 2014, dated 2019), this text covers Observed efficacy for 13 molecules.

One experiment has as its system Alternaria solani. It is filed as cell-based.
In another experiment the test system is Septoria tritici. Type of experiment: cell-based.
In a further experiment the test system is Botrytis cinerea. Type of experiment: cell-based. To be noted: concentration 4.
For experiment [1], the system named is southern green stink bug (Nezara viridula). The experiment in a line: Test 5: control of southern green stink bug, dipped green beans and bugs. To be noted: 10 ppm.
The next experiment relates to Leptosphaeria nodorum. Type of experiment: cell-based.
The next experiment concerns Phytophthora infestans. Type of experiment: cell-based.
The test system of the next experiment is Pyricularia oryzae. Type of experiment: cell-based.
Experiment [2] concerns southern green stink bug (Nezara viridula). The experiment in a line: Test 7: control of southern green stink bug on dipped Lima bean plants. Type of experiment: in vivo. To be noted: 50 ppm; mortality (sick + death insects) of second instar at 5 days. The procedure: Beauveria bassiana strain PPRI 5339 was at room temperature for one hour before use.
Seven days old Lima bean plants were dipped into each treatment. Once dried, plants were artificially infested with four second instar southern green stink bugs. Percentage of mortality (sick+ death insects) was evaluated at 5 days.

Like-named read-outs stand apart in the source and are kept apart here.

`CC1(C(=O)Nc2ccc(O)c(Cl)c2Cl)CCCCC1` [Fenhexamid, fenhexamid]: in the experiment with Alternaria solani (concentration 4), the Observed efficacy came out at 46%.
With `Fc1ccc([C@]2(Cn3cncn3)O[C@H]2c2ccccc2Cl)cc1` (racemic) [Epoxiconazol, epoxiconazole], the Observed efficacy was determined as 35% in the experiment with Septoria tritici (concentration 0.25) and 36% with Alternaria solani (concentration 0.25).
As to `CCCN(CCOc1c(Cl)cc(Cl)cc1Cl)C(=O)n1ccnc1` [Prochloraz, prochloraz], the Observed efficacy in the experiment on Botrytis cinerea was 39%; in the experiment with Septoria tritici (concentration 4), 49%.
With `CO/N=C(/C1=NOCCO1)c1ccccc1Oc1ncnc(Oc2ccccc2Cl)c1F` [Fluoxastrobin, fluoxastrobin], the Observed efficacy with Alternaria solani (concentration 0.25) amounted to 11%.
On to `CON=C(C(=O)OC)c1ccccc1CON=C(C)c1cccc(C(F)(F)F)c1` [Trifloxystrobin, trifloxystrobin], for which the figures for the Observed efficacy in the experiment on Septoria tritici (concentration 0.004) and in the experiment on Septoria tritici (concentration 0.016) were 7% and 67%, respectively.
Turning to `Cn1cc(C(=O)Nc2ccccc2-c2cc(F)c(F)c(F)c2)c(C(F)F)n1` [Fluxapyroxad, fluxapyroxad], the Observed efficacy in experiment [1] was 0%.
On to `COC(=O)N(OC)c1ccccc1COc1ccn(-c2ccc(Cl)cc2)n1` [Pyraclostrobin, pyraclostrobin], for which the Observed efficacy is reported as 59% with Septoria tritici (concentration 0.004) and 0% in experiment [1].
Turning to `CO/C=C(/C(=O)OC)c1ccccc1COc1cccc(C(F)(F)F)n1` [Picoxystrobin, picoxystrobin], the Observed efficacy in the experiment with Alternaria solani (concentration 0.25) was 39%.
As to `C[C@@H]1C(=O)O[C@H]2C[C@@]34[C@H]5C[C@@H](C(C)(C)C)[C@]36[C@@H](OC(=O)[C@@H]6O)O[C@@]4(C(=O)O5)[C@]21O` [Ginkgolide A], the Observed efficacy is 16% with Septoria tritici (concentration 63), 0% in the experiment with Alternaria solani (concentration 16), 0% with Alternaria solani (concentration 63) and 18% in the experiment with Leptosphaeria nodorum (concentration 63).
For the molecule `CC1COC(Cn2cncn2)(c2ccc(Oc3ccc(Cl)cc3)cc2Cl)O1` (stereo not shown) [Difenoconazol, difenoconazole], the Observed efficacy amounted to 0% with Alternaria solani (concentration 1) and 21% in the experiment with Leptosphaeria nodorum (concentration 1).
In the case of chlorothalonil, the results for the Observed efficacy in the experiment with Botrytis cinerea and in the experiment on Leptosphaeria nodorum (concentration 1) were 53% and 39%, respectively.
Turning to `CC(C)(C)[C@]1(O)C[C@@H]2OC(=O)C[C@@]23C(=O)O[C@@H]2OC(=O)[C@H](O)[C@]213` [Bilobalide, (3aS,5aR,8aS,9R,10aR)-9-tert-butyl-8,9-dihydroxydihydro-9H-furo[2,3-b]furo[3′,2′;2,3]cyclopenta[1,2-c]furan-2,4,7(3H,8H)-trione], the Observed efficacy in the experiment with Phytophthora infestans (0.063 ppm) came out at 0%; in the experiment with Phytophthora infestans (0.25 ppm) it was 4%; with Phytophthora infestans (1 ppm) it was 24%; in the experiment with Pyricularia oryzae (concentration 4) it was 3%; in the experiment on Pyricularia oryzae (concentration 16), 1%; in the experiment on Pyricularia oryzae (concentration 63), 5%. The Observed efficacy with Septoria tritici (concentration 1) worked out at 6%; in the experiment on Septoria tritici (concentration 4) it was 8%; with Septoria tritici (concentration 16) it was 9%; in the experiment with Alternaria solani (concentration 16), 0%; in the experiment on Alternaria solani (concentration 63) it was 0%; with Leptosphaeria nodorum (concentration 63), 24%. In addition, the Observed efficacy in experiment [2] is given as 33%.
`CCCCCCCCc1c(CC)nc2ncnn2c1N` [Ametoctradin, ametoctradin] showed an Observed efficacy in the experiment with Phytophthora infestans (0.004 ppm) of 0%.
